Patent US6004957A, “Sulfonamide inhibitors of aspartyl protease” (Vertex Pharmaceuticals, Incorporated, priority 1998, dated 1999)
Like-named read-outs stand apart in the source and are kept apart here.

How the values were obtained:
[1] = target: HIV-1 protease (Human immunodeficiency virus type 1 group M subtype B, UniProt P04585); assay: biochemical; details: Table VII
From the text: We measured the inhibition constants of the compounds listed in Table VII against HIV-1 protease using the above-cited method of Pennington et al.

[2] = system: HIVIIIb in CCRM-CEM cells; assay: Anti-viral potency in CCRM-CEM cells acutely infected with HIVIIIb (method of Meek et al.), extracellular p24 antigen; format: cell-based, HIV-1; details: Table VIII, read-out: IC90 Range
Summary of the method: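 Compounds in DMSO were added to CCRM-CEM cells (CD4+ human T-cell lymphoma) acutely infected with HIVIIIb following Meek et al. Inhibition of viral replication was determined from extracellular p24 antigen concentration measured by enzyme immunoassay.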

[3] = Human immunodeficiency virus 1, HIV replication

Molecule	Ki [1] [nM]	IC90 [2, 3] [nM]	IC90 ([2]; HIV replication) [nM]
CC(C)CN(C[C@@H](O)[C@H](Cc1ccccc1)NC(=O)[C@H](CC(N)=O)NC(=O)c1ccc2ccccc2n1)S(=O)(=O)c1ccc(-c2ccccn2)s1 [Compound 12, (S)-N-1-(1-(S)-Benzyl-2-(syn)-hydroxyl-3-(isobutyl-(5-pyridin-2-yl-thiophene-2-sulfonyl)-amino)-propyl)-2-((quinoline-2-carbonyl)-amino)-succinamide]	0.1	< 100	
CC(C)CN(C[C@@H](O)[C@H](Cc1ccccc1)NC(=O)[C@@H](NC(=O)OCc1ccccn1)C(C)C)S(=O)(=O)c1ccc(F)cc1 [Compound 26]	0.1	101 to 1000	
CC(C)CN(C[C@@H](O)[C@H](Cc1ccccc1)NC(=O)OC(C)(C)C)S(=O)(=O)c1cccc(F)c1 [Compound 50]	11	1000 to 10000	
CC(C)CN(C[C@@H](O)[C@H](Cc1ccccc1)NC(=O)OC1CCOC1)S(=O)(=O)c1ccc(F)cc1 (stereo partly drawn) [Compound 52, 4-Fluoro-N-((2 syn,3S)-2-hydroxy-4-phenyl-3-((R)-tetrahydrofuran-3-yloxycarbonylamino)-butyl)-N-isobutyl-benzenesulfonamide and 4-Fluoro-N-((2 syn,3S)-2-hydroxy-4-phenyl-3-((R)-tetrahydrofuran-3-yloxycarbonylamino)-butyl)-N-isobutyl-benzenesulfonamide]	0.4	101 to 1000	
CC(C)CN(C[C@@H](O)[C@H](Cc1ccccc1)NC(=O)OC(C)(C)C)S(=O)(=O)c1ccc(N)c([N+](=O)[O-])c1 [Compound 62]	72		
CC(C)CN(C[C@@H](O)[C@H](Cc1ccccc1)NC(=O)OC(C)(C)C)S(=O)(=O)N(C)C [Compound 68]	120		
CC(C)N(C[C@@H](O)[C@H](Cc1ccccc1)NC(=O)OC(C)(C)C)S(=O)(=O)c1ccc(F)cc1 [Compound 75]	290		
C=CCOC(=O)N[C@@H](Cc1ccccc1)[C@H](O)CN(CC(C)C)S(=O)(=O)c1ccc(F)c(NC(C)=O)c1 [Compound 87]	10	1000 to 10000	
CC(=O)Nc1ccc(S(=O)(=O)N(CC(C)C)C[C@@H](O)[C@H](Cc2ccccc2)NC(=O)OCC2CCOC2)cc1 (stereo partly shown) [Compound 92]	20		
CC(C)CN(C[C@@H](O)[C@H](Cc1ccccc1)NC(=O)OCC1CCOC1)S(=O)(=O)c1ccc(F)cc1 (stereo partly drawn) [Compound 97, 4-Fluoro-N-(2 syn,3S)-2-hydroxy-4-phenyl-3-((tetrahydro-furan-(R)-3-ylmethoxycarbonylamino)-butyl)-N-isobutyl-benzenesulfonamide and 4-Fluoro-N-(2 syn,3S)-2-hydroxy-4-phenyl-3-((tetrahydro-furan-(S)-3-ylmethoxycarbonylamino)-butyl)-N-isobutyl-benzenesulfonamide]	2.5	101 to 1000	
CC(C)CN(C[C@@H](O)[C@H](Cc1ccccc1)NC(=O)OCc1ccccn1)S(=O)(=O)c1ccc(F)c(F)c1 [Compound 108]	2	1000 to 10000	
O=C(N[C@@H](Cc1ccccc1)[C@H](O)CN(CC1CCCC1)S(=O)(=O)c1ccc(O)cc1)OCc1cccnc1 [Compound 166, N-cyclopentylmethyl-4-hydroxy-N-((2 syn,3S)-2-hydroxy-4-phenyl-3-(pyridin-3-yl-methoxycarbonylamino)-butyl)-benzenesulfonamide]		< 100	
CC(C)CN(C[C@@H](O)[C@H](Cc1ccccc1)NC(=O)O[C@H]1CCOC1)S(=O)(=O)c1ccc([N+](=O)[O-])cc1 [Compound 167, N-((2 syn,3S)-2-Hydroxy-4-phenyl-3-((S)-tetrahydrofuran-3-yloxycarbonylamino)-butyl)-N-isobutyl-4-nitro-benzenesulfonamide]		101 to 1000	
O=C(N[C@@H](Cc1ccccc1)[C@H](O)CN(CC1CCCC1)S(=O)(=O)c1ccc(O)cc1)O[C@H]1CCOC1 [Compound 169, N-Cyclopentylmethyl-4-hydroxy-N-((2 syn,3S)-2-hydroxy-4-phenyl-3-((S)-tetrahydrofuran-3-yloxycarbonylamino)-butyl)-benzenesulfonamide]		< 100	
O=C(N[C@@H](Cc1ccccc1)[C@H](O)CN(CC1CCCC1)S(=O)(=O)c1ccc([N+](=O)[O-])cc1)O[C@H]1CCOC1 [Compound 170, N-Cyclopentylmethyl-N-((2 syn,3S)-2-hydroxy-4-phenyl-3-((S)-tetrahydrofuran-3-yloxycarbonylamino)-butyl)-4-nitro-benezensulfonamide]		101 to 1000	
Nc1ccc(S(=O)(=O)N(CC2CCCC2)C[C@@H](O)[C@H](Cc2ccccc2)NC(=O)O[C@H]2CCOC2)cc1 [Compound 171, 4-Amino-N-cyclopentylmethyl-N-((2 syn,3S)-2-hydroxy-4-phenyl-3-((S)-tetrahydrofuran-3-yloxycarbonylamino)-butyl)-banzenesulfonamide]		< 100	
Nc1ccc(S(=O)(=O)N(CC2CCCC2)C[C@@H](O)[C@H](Cc2ccccc2)NC(=O)O[C@H]2CCOC2)c(N)c1 [Compound 173, 2,4-Diamino-N-cyclopentylmethyl-N-((2 syn,3S)-2-hydroxy-4-phenyl-3-((S)-tetrahydrofuran-3-yloxycarbonylamino)-butyl)-benzenesulfonamide]		< 100	
CC(C)CN(C[C@@H](O)[C@H](Cc1ccccc1)NC(=O)O[C@H]1CCOC1)S(=O)(=O)c1ccc(O)cc1 [Compound 175]		< 100	
O=C(N[C@@H](Cc1ccccc1)[C@H](O)CN(CC1CCCC1)S(=O)(=O)c1ccc2c(c1)OCO2)O[C@H]1CCOC1 [Compound 176]	< 0.1		
O=C(N[C@@H](Cc1ccccc1)[C@H](O)CN(CC1CCCC1)S(=O)(=O)c1ccc(F)cc1)O[C@H]1CCOC1 [Compound 182, N-Cyclopentylmethyl-4-fluoro-N-((2 syn,3S)-2-hydroxy-4-phenyl-3-((S)-tetrahydrofuran-3-yloxycarbonylamino)-butyl)-benzenesulfonamide]		101 to 1000	
O=C(N[C@@H](Cc1ccccc1)[C@H](O)CN(CC1CCCC1)S(=O)(=O)c1ccc(Cl)c(Cl)c1)O[C@H]1CCOC1 [Compound 183, 3,4-Dichloro-N-cyclopentylmethyl-N-((2 syn,3S)-2-hydroxy-4-phenyl-3-((S)-tetrahydrofuran-3-yloxycarbonylamino)-butyl)-benzenesulfonamide]		101 to 1000	
CC[C@H](C)[C@H](NC(=O)OCc1ccccc1)C(=O)N[C@@H](Cc1ccccc1)[C@H](O)CN(CC(C)C)S(=O)(=O)c1ccc(F)c(NC(C)=O)c1 [Compound 187, Benzyloxycarbonyl-(L)-isoleucine-N-(5-((3-amino-(2 syn,3S)-2-hydroxy-4-phenyl-butyl)-isobutyl-sulfamoyl)-2-fluoro-phenyl)-acetamide]		101 to 1000	
CC[C@H](C)[C@H](NC(=O)c1cnc2ccccc2n1)C(=O)N[C@@H](Cc1ccccc1)[C@H](O)CN(CC(C)C)S(=O)(=O)c1ccc(F)c(NC(C)=O)c1 [Compound 188]		1000 to 10000	
CC(C)CN(C[C@H](O)[C@H](Cc1ccccc1)NC(=O)[C@H](CC(N)=O)NC(=O)c1ccc2ccccc2n1)S(=O)(=O)c1cccc2nonc12 [Compound 192]	67	1000 to 10000	
COc1ccc(S(=O)(=O)N(CC2CCCC2)C[C@@H](O)[C@H](CC2CCCCC2)NC(=O)O[C@H]2CCOC2)cc1 [Compound 195, N-((2 syn,3S)-4-Cyclohexyl-2-hydroxy-3-((S)-tetrahydrofuran-3-yloxycarbonylamino)-butyl)-N-cyclopentylmethyl-4-methoxy-benzenesulfonamide]		< 100	
(S)-N-1-(3-((3-Acetylamino-4-fluoro-benzenesulfonyl)-benzyl-amino)-(1S,2 syn)-1-benzyl-2-hydroxy-propyl)-2-((quinoline-2-carbonyl)-amino)-succinamide and (S)-N-1-(3-((4-Acetylamino-3-fluoro-benzenesulfonyl)-benzyl-amino)-(1S,2 syn)-1-benzyl-2-hydroxy-propyl)-2-((quinoline-2-carbonyl)-amino)-succinamide [Compound 2]			101 to 1000
